Reference: publication PMC4071600, “Amino Alcohols from the Ascidian Pseudodistoma sp” (Marine Drugs, 2014)

Target: T1, Na^+/K^+-ATPase
T1 construct: gene ATP1A1; with Sodium/potassium-transporting ATPase subunit beta-1
Assay: Na+/K+-ATPase inhibition assay (by reference)
Type: biochemical
Excerpt: Na+/K+-ATPase inhibition assay (by reference) on Na^+/K^+-ATPase

| IC50 | Structure (SMILES) |
| --- | --- |
| 62 µM | CCCCCCCCC/C=C/[C@H](O)[C@H](C)N [compound 1, (E)-2-aminotetradec-4-en-3-ol] |
| 78.4 µM | CCCCCCCC/C=C/C[C@H](O)[C@H](C)N [compound 2, Pseudoaminol B] |
| > 200 µM | CCCCCCC/C=C/C=C/[C@H](O)[C@H](C)N [compound 3, Pseudoaminol C] |
| 190 µM | CCCCCCCC/C=C/C[C@H](O)CN [compound 4, Pseudoaminol D] |
| 101 µM | CC/C=C\C/C=C\CC/C=C/C=C/[C@H](O)[C@H](C)N [compound 5, Pseudoaminol E] |
| > 200 µM | CCCCCCCCC/C=C/[C@H](O)[C@H](C)NCC(=O)O [compound 6, Pseudoaminol F] |
| > 200 µM | CC/C=C\C/C=C\CC/C=C/C=C/[C@H](O)[C@H](C)NCC(=O)O [compound 7, Pseudoaminol G] |
| 71.4 µM | CCCCCCCCC/C=C/[C@@H]1OC(=O)N[C@H]1C [compound 8, Compound 8] |
| 46.8 µM | CCCCCCCCCCC[C@H](O)[C@H](C)N [compound 9, Compound 9] |
| 118 µM | CCCCCCCCCCC[C@H](O)[C@H](C)NC(C)=O [compound 10, Compound 10] |
| 108 µM | CCCCCCCCCCC[C@H](OC(=O)c1ccccc1)[C@H](C)NC(=O)c1ccccc1 [compound 12, Compound 12] |
| 130 µM | CCCCCCCCCCC[C@H](O)CN [compound 13, Compound 13] |
| > 200 µM | CCCCCCCCCCC[C@H](O)CNC(C)=O [compound 14, Compound 14] |
